Measurements from patent US7300933B2, “Diazabicyclic biaryl derivatives” (Neurosearch A/S, priority 2002, dated 2007).
Counter-ions that a name gives are not always drawn.

Key:
[1] = target: T1, α7-subtype of nicotinic receptors (Rattus norvegicus, UniProt Q05941); experiment: In vitro inhibition of 3H-α-bungarotoxine binding in rat brain; conditions: rat cerebral cortex homogenate; 3H-α-bungarotoxine 2 nM; 2 hours at 37° C.
T1 construct: Cerebral cortices from male Wistar rats (150-250 g) are homogenised; from tissue; host or cells: rat cerebral cortex membrane homogenate

serotonin transporter = target: T2, serotonin transporter (Rattus norvegicus, UniProt P31652); experiment: In vitro inhibition of 3H-5-hydroxytryptamine uptake in cortical synaptosomes; format: biochemical; conditions: 3H-5-HT 1 nM, 30 minutes at 37° C.
T2 construct: Cerebral cortices from male Wistar rats (150-200 g) are homogenized; from tissue; host or cells: rat cerebral cortex synaptosomes (P2 pellet)
Protocol: In vitro Inhibition of ^3H-5-Hydroxytryptamine Uptake in Cortical Synaptosomes
Serotonin transporters/uptake sites on nerve terminals presumably function to terminate neuronal signaling by removing serotonin from the synaptic cleft. The activity of the serotonin transporter integral protein can be measured in vitro by synaptosomal uptake of ^3H-5-hydroxytryptamine (5-HT, serotonin).
Preparations are performed at 0-4° C. Cerebral cortices from male Wistar rats (150-200 g) are homogenized for 5-10 seconds in 100 volumes of ice-cold 0.32 M sucrose containing 1 mM pargyline, using a motor driven teflon pestle in a glass homogenizing vessel. Monoamine oxidase activity is inhibited in the presence of pargyline.
The homogenate is subjected to centrifugation at 1000×g for 10 minutes. The resulting supernatant is then centrifuged at 27,000×g for 50 minutes and the supernatant is discarded. […]
Aliquots of 4.0 ml tissue suspension are added to 100 μl of test solution and 100 μl of ^3H-5-HT (1 nM, final concentration), mixed and incubated for 30 minutes at 37° C. Non-specific uptake is determined using Citalopram (1 μM, final concentration, available from Lundbeck, Denmark). […]
The amount of radioactivity on the filters is determined by conventional liquid scintillation counting. Specific uptake is calculated as the difference between total uptake and non-specific uptake. […]

T2 sequence (P31652 whole entry): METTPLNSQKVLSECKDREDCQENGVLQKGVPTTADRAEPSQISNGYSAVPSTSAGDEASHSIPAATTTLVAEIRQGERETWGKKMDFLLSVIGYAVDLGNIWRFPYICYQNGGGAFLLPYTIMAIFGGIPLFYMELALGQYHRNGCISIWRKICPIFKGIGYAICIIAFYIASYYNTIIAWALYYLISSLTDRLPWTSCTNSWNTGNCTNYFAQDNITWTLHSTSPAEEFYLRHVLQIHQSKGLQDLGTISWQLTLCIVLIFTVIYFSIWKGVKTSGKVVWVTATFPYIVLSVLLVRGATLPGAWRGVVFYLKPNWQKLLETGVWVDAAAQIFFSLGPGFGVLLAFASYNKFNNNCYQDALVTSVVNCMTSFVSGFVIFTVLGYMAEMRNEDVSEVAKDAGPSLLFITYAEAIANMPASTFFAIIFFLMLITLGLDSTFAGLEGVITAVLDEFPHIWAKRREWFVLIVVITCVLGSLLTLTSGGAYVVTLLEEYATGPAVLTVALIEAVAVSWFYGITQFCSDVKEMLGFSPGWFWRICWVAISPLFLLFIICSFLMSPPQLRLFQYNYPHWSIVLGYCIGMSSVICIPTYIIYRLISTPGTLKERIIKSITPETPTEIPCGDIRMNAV
T1 sequence (Q05941 23-502): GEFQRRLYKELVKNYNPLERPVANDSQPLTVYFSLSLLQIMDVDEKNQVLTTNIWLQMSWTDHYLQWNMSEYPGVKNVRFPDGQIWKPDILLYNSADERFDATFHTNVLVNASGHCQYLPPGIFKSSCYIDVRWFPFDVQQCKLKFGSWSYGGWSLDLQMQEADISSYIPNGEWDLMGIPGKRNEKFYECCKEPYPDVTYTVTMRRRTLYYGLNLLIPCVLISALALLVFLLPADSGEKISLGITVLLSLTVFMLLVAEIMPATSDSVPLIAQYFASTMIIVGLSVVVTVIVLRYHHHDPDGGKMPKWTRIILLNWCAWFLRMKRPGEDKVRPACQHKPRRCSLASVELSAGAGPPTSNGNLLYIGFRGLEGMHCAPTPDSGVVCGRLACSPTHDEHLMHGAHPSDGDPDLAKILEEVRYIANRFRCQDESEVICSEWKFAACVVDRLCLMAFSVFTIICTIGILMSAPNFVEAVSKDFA

Row | SMILES | IC50 [1] [nM] | IC50 (serotonin transporter) [nM]
1 | CN1C[C@@H]2C[C@H]1CN2c1ccc(-c2ccsc2)nn1 [Compound 1B, 5-Methyl-2-[6-(3-thienyl)-3-pyridazinyl]-(1S,4S)-2,5-diazabicyclo-[2.2.1]-heptane] | 200 | –
2 | c1cc(-c2cnc(N3C[C@@H]4C[C@H]3CN4)cn2)cs1 [Compound 1H, 2-[5-(3-Thienyl)-2-pyrazinyl]-(1S,4S)-2,5-diazabicyclo-[2.2.1]-heptane fumaric acid salt] | 260 | 21
3 | c1cc(-c2ccc(N3C[C@@H]4C[C@H]3CN4)nn2)cs1 [Compound 1A, 2-[6-(3-Thienyl)-3-pyridazinyl]-(1S,4S)-2,5-diazabicyclo-[2.2.1]-heptane fumaric acid salt] | – | 510
